Assay results: patent publication US10899790B2, “Method for modifying T cell population” (OSAKA UNIVERSITY, priority 2016, dated 2021)

system: Healthy human-derived CD4+CD45RO+T cells; assay: Effect in vitro: CD62L and CD127 expression in cultured T cells by flow cytometry; format: cell-based; details: 20 μM; anti-CD3, anti-CD28, IL-2; vs DMSO control (FIG. 2)
Experimental: Healthy human-derived CD4^+CD45RO^+T cells (1×10^5) were cultured in the presence of anti-CD3 antibody (2 μg/ml), anti-CD28 antibody (2 μg/ml), IL-2 (20 IU/ml) and RDH10 inhibitors (Compound No. 16 (RDHI-032), Compound No. 17 (RDHI-033), and Compound No. 18 (RDHI-034)) (20 μM for each). In addition, DMSO was used as a control for the RDH10 inhibitor. After seven days […] resuspended in a fresh culture medium to which IL-2 was not added, and cultured for one more day. Thereafter, the expression of CD62L and CD127 in T cells was analyzed by flow cytometry. The culture solution used was X-VIVO15 to which AB serum was added to have a final concentration of 10%.

With `COC(=O)[C@@]1(C)CC[C@]2(C)CC[C@]3(C)C(=CC(=O)[C@@H]4[C@@]5(C)CCC(NC(=O)Nc6ccccc6C(=O)O)C(C)(C)[C@@H]5CC[C@]43C)[C@H]2C1` (stereo partly drawn) [Compound No. 12, 2-(3-((4aR,6aR,6bS,8aS,11S,12aS,14aR,14bS)-11-(methoxycarbonyl)-4,4,6a,6b,8a,11,14b-heptamethyl-14-oxo-1,2,3,4,4a,5,6,6a,6b,7,8,8a,9,10,11,12,12a,14,14a,14b-icosahydropicen-3-yl)ureido)benzoic acid] as the compound, how does the “amplification of memory T cells (CD62L+CD127+T cells)” value (“amplification of memory T cells” for short) read?
Its value is “tended to amplify memory cells”.

For `CC1(C)C(N)CC[C@]2(C)[C@H]3C(=O)C=C4[C@@H]5C[C@@](C)(C(=O)O)CC[C@]5(C)CC[C@@]4(C)[C@]3(C)CC[C@@H]12.Cl` (stereo partly drawn) [Compound No. 21, (2S,4aS,6aS,6bR,8aR,12aS,12bR,14bR)-10-amino-2,4a,6a,6b,9,9,12a-heptamethyl-13-oxo-1,2,3,4,4a,5,6,6a,6b,7,8,8a,9,10,11,12,12a,12b,13,14b-icosahydropicene-2-carboxylic acid hydrochloride], which “amplification of memory T cells” value is on record?
The value was “tended to amplify memory cells”.

Which “amplification of memory T cells” value does the source give for `CC1(C)C(=NO)CC[C@]2(C)[C@H]3C(=O)C=C4[C@H]5C[C@@](C)(C(N)=O)CC[C@]5(C)CC[C@@]4(C)[C@]3(C)CC[C@@H]12` [RDHI-038, (2S,4aS,6aS,6bR,8aR,12aS,12bR,14bS)-10-(hydroxyimino)-2,4a,6a,6b,9,9,12a-heptamethyl-13-oxo-1,2,3,4,4a,5,6,6a,6b,7,8,8a,9,10,11,12,12a,12b,13,14b-icosahydropicene-2-carboxamide] here?
Its value is “tended to amplify memory cells”.

`COC(=O)[C@@]1(C)CC[C@]2(C)CC[C@]3(C)C(=CC(=O)[C@@H]4[C@@]5(C)CCC(NC(=O)c6ccccc6C(=O)O)C(C)(C)[C@@H]5CC[C@]43C)[C@H]2C1` (stereo partly drawn) [Compound No. 3, 2-((4aR,6aR,6bS,8aS,11S,12aS,14aR,14bS)-11-(methoxycarbonyl)-4,4,6a,6b,8a,11,14b-heptamethyl-14-oxo-1,2,3,4,4a,5,6,6a,6b,7,8,8a,9,10,11,12,12a,14,14a,14b-icosahydropicen-3-ylcarbamoyl)benzoic acid] was tested. Which “amplification of memory T cells” value did it give?
The value was “tended to amplify memory cells”.

For `COC(=O)[C@@]1(C)CC[C@]2(C)CC[C@]3(C)C(=CC(=O)[C@@H]4[C@@]5(C)CCC(NC(=O)/C=C\C(=O)O)C(C)(C)[C@@H]5CC[C@]43C)[C@@H]2C1` (stereo partly drawn) [Compound No. 6, (Z)-4-((4aR,6aR,6bS,8aS,11S,12aR,14aR,14bS)-11-(methoxycarbonyl)-4,4,6a,6b,8a,11,14b-heptamethyl-14-oxo-1,2,3,4,4a,5,6,6a,6b,7,8,8a,9,10,11,12,12a,14,14a,14b-icosahydropicen-3-ylamino)-4-oxobut-2-enoic acid], which “amplification of memory T cells” value is on record?
The value was “tended to amplify memory cells”.

With `CC1(C)C(NC(=O)c2ccccc2C(=O)O)CC[C@]2(C)[C@H]3C(=O)C=C4[C@@H]5C[C@@](C)(C(=O)O)CC[C@]5(C)CC[C@@]4(C)[C@]3(C)CC[C@@H]12` (stereo partly drawn) [Compound No. 27, (2S,4aS,6aS,6bR,8aR,12aS,12bR,14bR)-10-(2-carboxybenzamide)-2,4a,6a,6b,9,9,12a-heptamethyl-13-oxo-1,2,3,4,4a,5,6,6a,6b,7,8,8a,9,10,11,12,12a,12b,13,14b-icosahydropicene-2-carboxylic acid] as the compound, how does the “amplification of memory T cells” value read?
Its value is “tended to amplify memory cells”.

`CC1(C)C(N)CC[C@]2(C)[C@H]3C(=O)C=C4[C@H]5C[C@@](C)(C(=O)O)CC[C@]5(C)CC[C@@]4(C)[C@]3(C)CC[C@@H]12.Cl` (stereo partly drawn) [Compound No. 20, (2S,4aS,6aS,6bR,8aR,12aS,12bR,14bS)-10-amino-2,4a,6a,6b,9,9,12a-heptamethyl-13-oxo-1,2,3,4,4a,5,6,6a,6b,7,8,8a,9,10,11,12,12a,12b,13,14b-icosahydropicene-2-carboxylic acid hydrochloride] was tested. Which “amplification of memory T cells” value did it give?
The value was “tended to amplify memory cells”.

Which “amplification of memory T cells” value does the source give for `CC1(C)C(N)CC[C@]2(C)[C@H]3C(=O)C=C4[C@H]5C[C@@](C)(C(N)=O)CC[C@]5(C)CC[C@@]4(C)[C@]3(C)CC[C@@H]12` (stereo partly drawn) [Compound No. 19, (2S,4aS,6aS,6bR,8aR,12aS,12bR,14bS)-10-amino-2,4a,6a,6b,9,9,12a-heptamethyl-13-oxo-1,2,3,4,4a,5,6,6a,6b,7,8,8a,9,10,11,12,12a,12b,13,14b-icosahydropicene-2-carboxamide] here?
The value was “tended to amplify memory cells”.

For `COC(=O)[C@H](Cc1ccccc1)NC(=O)NC1CC[C@]2(C)[C@H]3C(=O)C=C4[C@H]5C[C@@](C)(C(=O)OC)CC[C@]5(C)CC[C@@]4(C)[C@]3(C)CC[C@H]2C1(C)C` (stereo partly drawn) [Compound No. 11, (2S,4aS,6aS,6bR,8aR,12aS,12bR,14bS)-methyl 10-(3-((S)-1-methoxy-1-oxo-3-phenylpropan-2-yl)ureido)-2,4a,6a,6b,9,9,12a-heptamethyl-13-oxo-1,2,3,4,4a,5,6,6a,6b,7,8,8a,9,10,11,12,12a,12b,13,14b-icosahydropicene-2-carboxylate], which “amplification of memory T cells” value is on record?
Its value is “tended to amplify memory cells”.
